The values below come from patent publication US20050256210A1, “Compounds with activity at estrogen receptors” (priority 2004, published 2005).

For one series, the system named is male Sprague-Dawley rats. The series can be described thus: CFA induced arthritis rat model assay (hot plate latency, paw thickness). Type of series: in vivo. As to conditions: 1.0, 3.0 or 10 mg/kg s.c. daily from Day 4 after CFA. The procedure: Naïve, male Sprague-Dawley rats (225-250 g; n=6 per group) served as subjects. Response latencies to a noxious thermal stimulus were measured using the 52° C. hot plate test. After obtaining baseline responses, 0.1 ml of Freund's complete adjuvant (CFA) or vehicle (inactivated CFA (iCFA)) was injected into the dorsal surface of the left hind paw. Response latencies were again measured 4 days following CFA (or iCFA) administration, a time point when thermal hyperalgesia is stable. A significant decrease in the hot plate latency was interpreted as the presence of thermal hyperalgesia. Following testing, thickness of both hind paws were measured (using a micrometer) in order to quantify possible edema formation at the injection site. Various doses of 4-(1-Phenyl-cyclohexyl)-phenol (ERB-002) (1.0, 3.0 or 10 mg/kg) or vehicle (DMSO) were administered (s.c.) following testing on Day 4, and then daily following testing for a period of 3 days.

In series [1] the test system is immature female Sprague-Dawley rats. As to the kind of experiment: Uterotrophic in vivo assay (uterine weight). More on the design: species or system rat. As to conditions: 10, 30 or 100 mg/kg s.c. daily for 3 days; FIG. 4. The procedure:
The effect of ERB-002 on uterine weight was assessed based on the previously published method of Harris et al., Endocrin, 2003, 143:4172, which is hereby incorporated by reference in its entirety. Naïve, female Sprague-Dawley rats (30-40 g; n=6 per group) served as subjects. Rats received daily subcutaneous injections of vehicle (100% DMSO), PPT (1.0 mg/rat)), a reportedly selective ERα agonist (Stauffer, 2000, J Med Chem 43:4934) or various doses of ERB-002 (10, 30 or 100 mg/kg) for a total of 3 days. Approximately 24 hours after the final injection, the rats were sacrificed, the uteri removed, trimmed of adhesions, fluid expelled and then weighed. Uterine weight was normalized as a percentage of total body weight by the following formula: % TBW=[(uterus weight (in mg)[…])/(body weight (in g))]*100.

Series [2] addresses T1, Estrogen receptor beta (ERβ) (Homo sapiens, UniProt Q92731).
T1 construct: expressed in transfected cells; host or cells: NIH3T3
The series can be described thus: Receptor Selection and Amplification Technology (R-SAT) functional receptor assay, ERβ. Type of series: cell-based. As to the method: NIH3T3 cells were grown in roller bottles to 70-80% confluence. Cells were then transfected for 12-16 h with plasmid DNAs using Polyfect (Qiagen Inc.) as per the manufacturer's protocol. R-SAT assays were typically performed by transfecting 30 ug/bottle of receptor and 50 ug/bottle of β-galactosidase plasmid DNA. All receptor and helper constructs used were in mammalian expression vectors. Helpers are defined as signaling molecules that modulate both ligand-dependent and/or ligand-independent function of the ER receptors, typically co-activators and kinases. NIH3T3 cells were transfected for 12-16 h, then trypsinized and frozen in DMSO. Frozen cells were later thawed, plated at 10,000-40,000 cells per well of a 96 well plate containing 4-(1-Phenyl-cyclohexyl)-phenol. Cells were then grown in a humidified atmosphere with 5% ambient CO2 for five days. Media was then removed from the plates and marker gene activity was measured by the addition of the β-galactosidase substrate o-nitrophenyl β-D-galactopyranoside (ONPG, in PBS with 5% NP-40). […] All data were analyzed using the computer program XLFit (IDBSm).

The target in series [3] is T2, Estrogen receptor alpha (ERα) (Homo sapiens, UniProt P03372).
T2 construct: expressed in transfected cells; host or cells: NIH3T3
T2 sequence (P03372 1-595): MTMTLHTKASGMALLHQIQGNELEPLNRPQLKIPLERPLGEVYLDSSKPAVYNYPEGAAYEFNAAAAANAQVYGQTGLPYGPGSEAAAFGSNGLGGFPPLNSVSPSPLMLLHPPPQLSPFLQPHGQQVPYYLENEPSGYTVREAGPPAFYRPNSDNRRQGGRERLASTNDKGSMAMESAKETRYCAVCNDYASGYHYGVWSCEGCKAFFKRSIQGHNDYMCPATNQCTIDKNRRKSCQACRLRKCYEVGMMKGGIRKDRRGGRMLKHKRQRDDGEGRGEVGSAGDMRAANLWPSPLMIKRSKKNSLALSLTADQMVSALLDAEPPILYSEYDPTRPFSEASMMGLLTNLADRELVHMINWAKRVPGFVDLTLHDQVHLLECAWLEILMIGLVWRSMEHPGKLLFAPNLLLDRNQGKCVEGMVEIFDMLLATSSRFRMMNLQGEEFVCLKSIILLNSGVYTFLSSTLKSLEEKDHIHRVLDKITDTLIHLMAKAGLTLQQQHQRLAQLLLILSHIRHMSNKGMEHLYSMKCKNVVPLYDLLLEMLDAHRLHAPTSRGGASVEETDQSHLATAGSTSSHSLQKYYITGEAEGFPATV
The series can be described thus: Receptor Selection and Amplification Technology (R-SAT) functional receptor assay, ERα. As to conditions: for Emax / % Efficacy ERα: NIH3T3 cells, efficacy relative to the reference ligand Estrone; for EC50 / pEC50 ERα: transfected NIH3T3 cells, agonist activity. In kind it is cell-based. As to the method:
The functional receptor assay, Receptor Selection and Amplification Technology (R-SAT™), was used with minor modifications from the procedure described in U.S. Pat. No. 5,707,798, which is hereby incorporated by reference in its entirety, to screen compounds for efficacy at the Estrogen receptors alpha and beta (ERα, ERβ). NIH3T3 cells were grown in roller bottles to 70-80% confluence. Cells were then transfected for 12-16 h with plasmid DNAs using Polyfect (Qiagen Inc.) as per the manufacturer's protocol. R-SAT assays were typically performed by transfecting 30 ug/bottle of receptor and 50 ug/bottle of β-galactosidase plasmid DNA. All receptor and helper constructs used were in mammalian expression vectors. Helpers are defined as signaling molecules that modulate both ligand-dependent and/or ligand-independent function of the ER receptors, typically co-activators and kinases. NIH3T3 cells were transfected for 12-16 h, then trypsinized and frozen in DMSO. Frozen cells were later thawed, plated at 10,000-40,000 cells per well of a 96 well plate containing 4-(1-Phenyl-cyclohexyl)-phenol. Cells were then grown in a humidified atmosphere with 5% ambient CO2 for five days. Media was then removed from the plates and marker gene activity was measured by the addition of the β-galactosidase substrate o-nitrophenyl β-D-galactopyranoside (ONPG, in PBS with 5% NP-40). The resulting colorimetric reaction was measured in a spectrophotometric plate reader (Titertek Inc.) at […]. All data were analyzed using the computer program XLFit (IDBSm).
These experiments provided a molecular profile, or fingerprint, for each agent tested at the human Estrogen receptors.

[4] abbreviates: R-SAT, NIH3T3 cells, efficacy relative to the reference ligand Estrone, read-out: % Efficacy ERβ.
The mark [5] stands for this setting: R-SAT, transfected NIH3T3 cells, agonist activity, read-out: pEC50 ERβ (converted).
The mark [6] stands for this setting: R-SAT, NIH3T3 cells, efficacy relative to the reference ligand Estrone.
Where [7] appears, read: R-SAT, transfected NIH3T3 cells, agonist activity.

Like-named read-outs stand apart in the source and are kept apart here.

T1 sequence (Q92731 whole entry): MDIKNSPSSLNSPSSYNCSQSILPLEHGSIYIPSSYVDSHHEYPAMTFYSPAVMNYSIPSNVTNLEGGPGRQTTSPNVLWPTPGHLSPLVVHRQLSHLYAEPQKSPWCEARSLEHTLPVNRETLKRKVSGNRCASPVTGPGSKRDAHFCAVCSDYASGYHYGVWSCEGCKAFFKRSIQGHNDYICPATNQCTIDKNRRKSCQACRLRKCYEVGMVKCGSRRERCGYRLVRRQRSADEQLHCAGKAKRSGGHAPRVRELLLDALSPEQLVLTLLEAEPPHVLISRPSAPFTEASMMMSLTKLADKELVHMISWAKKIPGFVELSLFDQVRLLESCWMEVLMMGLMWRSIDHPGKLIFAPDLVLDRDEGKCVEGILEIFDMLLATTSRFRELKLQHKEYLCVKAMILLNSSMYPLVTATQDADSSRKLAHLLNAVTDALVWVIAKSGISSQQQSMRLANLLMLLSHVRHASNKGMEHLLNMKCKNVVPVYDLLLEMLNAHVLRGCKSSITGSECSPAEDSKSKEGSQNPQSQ

For `Oc1ccc(C2(c3ccccc3)CCCCC2)cc1` [ERB-002, 4-(1-Phenylcyclohexyl)phenol], in the series with male Sprague-Dawley rats (FIG. 2), the “reversal of thermal hyperalgesia (52° C. hot plate latency)” value is on record as “dose dependent reversal of thermal hyperalgesia”. Moreover, in the series with male Sprague-Dawley rats (FIG. 3), the “reversal of edema (paw thickness)” value is recorded as “dose dependent reversal of edema”. For the same compound, the “uterotrophic properties (uterine weight as % of total body weight)” value in series [1] is given as “does not display uterotrophic properties”. The EC50 is 63.1 nM in series [2] and 3160 nM in series [3]. The Emax was 85% in series [2] (NIH3T3, read-out: % Efficacy ERβ) and 50% in series [3]. Further, in series [2] (R-SAT, Table 1 and FIG. 1), the “selectivity of activation of ERβ relative to ERα” value was “selectively activates Estrogen beta receptor (ERβ) relative to the Estrogen alpha receptor (ERα)”.

Take `CC(C)C1CCC(c2ccc(O)cc2)(c2cccc(F)c2)CC1` (stereo not shown) [ERB-037, 4-[1-(3-Fluoro-phenyl)-4-isopropyl-cyclohexyl]-phenol]: the Emax turned out to be 48% in series [2] (setting [4]) and 114% in series [3]. Also, the values for the EC50 in series [2] (setting [5]) and in series [3] were 7.94 nM and 1580 nM, respectively.

With `Oc1ccc(C2(c3ccc(F)cc3F)CCCCC2)cc1` [ERB-011, 4-(1-(2,4-Difluoro-phenyl)-cyclohexyl)-phenol], the figures for the Emax in series [2] (setting [4]) and in series [3] were 37% and 20%, respectively. Further, the EC50 is 79.4 nM in series [2] (setting [5]) and > 10000 nM in series [3].

`Oc1ccc(C2(c3ccc(F)cc3)CCCCCC2)cc1O` [ERB-014, 4-[1-(4-Fluoro-phenyl)-cycloheptyl]-benzene-1,2-diol]: the results for the Emax in series [2] (setting [4]) and in series [3] were 87% and 120%, respectively. The EC50 is 79.4 nM in series [2] (setting [5]) and 1260 nM in series [3].

On to `Oc1ccc(C2(c3ccccc3)CCC(C(F)(F)F)CC2)cc1` (stereo not shown) [ERB-030, 4-(1-Phenyl-[4-(trifluoromethyl)-cyclohexyl])-phenol], for which the Emax in series [2] (setting [4]) was found to be 46%; in series [3] it was 95%. Also, the values for the EC50 in series [2] (setting [5]) and in series [3] were 63.1 nM and 2510 nM, respectively.

Consider `Oc1ccc(C2(c3ccccc3)CCCCCC2)cc1` [ERB-012, 4-(1-Phenyl-cycloheptyl)-phenol], for which the Emax in series [2] (setting [4]) amounted to 41%; in series [3] it was 69%. Moreover, the figures for the EC50 in series [2] (setting [5]) and in series [3] were 126 nM and 631 nM, respectively.

On to `Oc1ccc(C2(c3ccccc3)CCCCCCC2)cc1` [ERB-017, 4-(1-Phenyl-cyclooctyl)-phenol], for which the Emax in series [2] (setting [4]) was 46%; in series [3] it was 80%. Besides, the figures for the EC50 in series [2] (setting [5]) and in series [3] were 6.31 nM and 251 nM, respectively.

With `Oc1ccc(C2(c3ccc(F)cc3)CCC(C(F)(F)F)CC2)cc1` (stereo not shown) [ERB-031, 4-(1-(4-Flourophenyl)-[4-(trifluoromethyl)-cyclohexyl])-phenol], the “% Efficacy ERβ” value in series [2] (setting [6]) is given as 62%. Further, the “pEC50 ERβ” value in series [2] (setting [7]) turned out to be 6.1. Further, in series [3], the “% Efficacy ERα” value worked out at 124% and the “pEC50 ERα” value was determined as 5.6.

In the case of `Oc1ccc(C2(c3ccc(F)c(F)c3)CCCCC2)cc1` [ERB-009], in series [2] (setting [6]), the “% Efficacy ERβ” value worked out at 138%. Further, the “pEC50 ERβ” value in series [2] (setting [7]) came out at 7.2. For the same compound, in series [3], the “% Efficacy ERα” value is recorded as 100% and the “pEC50 ERα” value is recorded as 5.4.
